How the values were obtained:
08HNG cells [1] = experiment: pH2AX foci 24 h after contacting, 08HNG; assay type: cell-based, human
Procedure: (§1) In one embodiment, on receipt, the tissue sample (typically the biopsy) is established in the form of an amplifiable cell line without a viral or chemical transformation agent according to an ancillary procedure well known to culture laboratories, as underlined by the publication of Elkind et al. “The radiobiology of cultured mammalian cell”, Gordon and Breach (1967). Once the number of cells is sufficient (typically after 1 to 3 weeks), the first experiments are carried out using the process according to the invention. A cell sample is prepared: The cells are inoculated on glass coverslips in Petri dishes. A portion of these coverslips are contaminated with metals or pesticides or any other DNA-breaking chemical or biochemical agent at different concentrations. A further portion is not contaminated; it represents the spontaneous state. During contamination, the cells remain in the culture incubator at 37° C.
For the contaminated cells, characteristics are acquired corresponding to the state after an incubation time with the DNA-breaking chemical or biochemical agent. Said characteristics are represented by foci corresponding to the marker pH2AX. The cells on glass coverslips are then fixed, lysed and hybridized. The following procedure, known per se (Bodgi et al, “A single formula to describe radiation-induced protein relocalization: towards a mathematical definition of individual radiosensitivity”, J Theor Biol. 21 p 333:135-45.2013):
the cells are fixed in 3% paraformaldehyde and 2% sucrose for 15 minutes at ambient temperature and permeabilized in 20 mM HEPES buffer solution (4-(2-hydroxyethyl)-1-piperazine ethane sulfonic acid) at pH 7.4, 50 mM NaCl, 3 mM MgCl2, 300 mM sucrose, 0.5% Triton X-100 (a non-ionic surfactant having the formula t-Oct-C6H4-(OCH2CH2)×OH where x=9-10, CAS No. 9002-93-1, supplied for example by Sigma Aldrich) for 3 minutes. The glass coverslips are then washed in phosphate buffer saline (known as the acronym PBS) before immunological staining. The incubation took place for 40 min at 37° C. in PBS supplemented with 2% bovine serum albumin (known as the acronym BSA or fraction V, supplied for example by Sigma Aldrich) and was followed by a wash with PBS. Anti-pH2AX primary antibodies are used at a concentration of 1:800. […]
The results are acquired using these coverslips on an immunofluorescence microscope (Olympus model for example). The reading may be direct (typically by counting the foci on at least 50 cells in G0/G1 for each point) or using dedicated image analysis software, or on an automated microscope; preferably the software or automated microscope methods are calibrated with manual determinations. […]

08HNG cells [2] = experiment: Micronuclei per 100 cells 24 h after contacting, 08HNG; assay type: cell-based, human
Procedure: as §1
the cells are fixed in 3% paraformaldehyde and 2% sucrose for 15 minutes at ambient temperature and permeabilized in 20 mM HEPES buffer solution (4-(2-hydroxyethyl)-1-piperazine ethane sulfonic acid) at pH 7.4, 50 mM NaCl, 3 mM MgCl2, 300 mM sucrose, 0.5% Triton X-100 (a non-ionic surfactant having the formula t-Oct-C6H4-(OCH2CH2)×OH where x=9-10, CAS No. 9002-93-1, supplied for example by Sigma Aldrich) for 3 minutes. The glass coverslips are then washed in phosphate buffer saline (known as the acronym PBS) before immunological staining. The incubation took place for 40 min at 37° C. in PBS supplemented with 2% bovine serum albumin (known as the acronym BSA or fraction V, supplied for example by Sigma Aldrich) and was followed by a wash with PBS. Anti-pH2AX primary antibodies are used at a concentration of 1:800. The incubations with anti-mouse FITC or anti-rabbit TRITC secondary antibodies (1:100, supplied by Sigma Aldrich) were performed at 37° C. in 2% BSA for 20 minutes. Glass coverslips were treated with Vectashield™ containing DAPI (4,6-Diamidino-2-phenylindole) to label the nucleus. Staining with DAPI also makes it possible, indirectly, to determine the number of cells in phase G1 (nuclei with homogenous DAPI staining), in phase S (nuclei with numerous pH2AX foci), in phase G2 (nuclei with heterogeneous DAPI staining) and metaphases (visible chromosomes).
Counterstaining with DAPI (a DNA marker known to those skilled in the art) makes it possible to locate the nucleus to situate the cytoplasmic or nuclear location to quantify the micronuclei, which are complementary cell markers to the data on the foci.
The tables hereinafter summarize the results of numerous experiments which were carried out as described in the “Detailed description” section above. […]

What does the source list for `c1ccc2[nH]c(-c3cscn3)nc2c1` [Thiobendazole]?
pH2AX (08HNG cells [1]; 0.3 μM): 1.8 foci; pH2AX (08HNG cells [1]; 1 μM): 2 foci; pH2AX (08HNG cells [1]; 3 μM): 4.3 foci; pH2AX (08HNG cells [1]; 10 μM): 6 foci; Micronuclei (08HNG cells [2]; 0.3 μM): 2 per 100 cells; Micronuclei (08HNG cells [2]; 1 μM): 4 per 100 cells; Micronuclei (08HNG cells [2]; 3 μM): 10 per 100 cells; Micronuclei (08HNG cells [2]; 10 μM): 10 per 100 cells
